These results are taken from PubChem BioAssay (NCI).

SMILES strings stand for the structures.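 Protocol summary: plate cells (96-well), add compound at 5 concentrations, incubate 48 h, interpolate endpoints linearly. TGI: total growth inhibition.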 Some results are limits rather than exact numbers.

Test systems include HCC-2998 colon; HL-60(TB) leukemia; SK-MEL-2 melanoma; SK-MEL-28 melanoma; UACC-62 melanoma; A549 NSCLC; IGROV1 ovarian; OVCAR-5 ovarian; NCI/ADR-RES ovarian; DU-145 prostate; MDA-MB-231 breast.
Common to all, as to assay: NCI-60 cell line screen, 48 h

In the case of `C/C=C(/I)CBr`, the TGI turned out to be 29.4 µM in the assay on HCC-2998 colon; 20.5 µM with HL-60(TB) leukemia; 28.4 µM in the assay with SK-MEL-2 melanoma; 52.6 µM in the assay on SK-MEL-28 melanoma; 29.5 µM with UACC-62 melanoma; 66.7 µM in the assay on A549 NSCLC. Also, the TGI in the assay with IGROV1 ovarian is 33.7 µM.

In the case of `[N-]=[N+]=NC(c1cn(C2CC(O)C(CO)O2)c(=O)[nH]c1=O)C(Br)Br` (configuration not stated), the TGI in the assay with HCC-2998 colon, in the assay on HL-60(TB) leukemia, in the assay on SK-MEL-2 melanoma, in the assay with SK-MEL-28 melanoma, in the assay with UACC-62 melanoma and in the assay with A549 NSCLC was greater than 100 µM each time. The TGI with OVCAR-5 ovarian and in the assay on IGROV1 ovarian was greater than 100 µM each time.

As to `O=C(/C=C/c1ccccc1)CSc1ncn[nH]1`, the TGI with HCC-2998 colon, with HL-60(TB) leukemia, in the assay with SK-MEL-2 melanoma, with SK-MEL-28 melanoma, in the assay on NCI/ADR-RES ovarian and with UACC-62 melanoma was greater than 100 µM throughout. Also, the TGI with A549 NSCLC, in the assay with DU-145 prostate, with OVCAR-5 ovarian and in the assay on IGROV1 ovarian was greater than 100 µM in each case.

Regarding `O=C(O)Cc1ccc(Nc2nc3cc(C(F)(F)F)ccc3nc2C(=O)O)cc1`, the TGI in the assay on HL-60(TB) leukemia, in the assay with SK-MEL-2 melanoma, in the assay with SK-MEL-28 melanoma, in the assay on NCI/ADR-RES ovarian, in the assay with UACC-62 melanoma and in the assay with A549 NSCLC was greater than 100 µM in each case. For the same compound, the TGI in the assay with DU-145 prostate, with OVCAR-5 ovarian and with IGROV1 ovarian was greater than 100 µM each time.

Regarding `CCOc1ccc2[nH]c3c(C)c4ccncc4c(C)c3c2c1`, the TGI with HCC-2998 colon turned out to be 2.74 µM; in the assay on SK-MEL-2 melanoma, 2.48 µM; in the assay on SK-MEL-28 melanoma, 3.61 µM; in the assay on A549 NSCLC, 2.88 µM; with OVCAR-5 ovarian, 2.93 µM; in the assay on IGROV1 ovarian, 2.42 µM.

For the compound `Brc1ccc(C[P+]2(c3ccccc3)CCCCC2)cc1`, the TGI was greater than 100 µM in the assay with HCC-2998 colon; 75.8 µM with HL-60(TB) leukemia; greater than 100 µM in the assay on SK-MEL-2 melanoma; greater than 100 µM in the assay with SK-MEL-28 melanoma; greater than 100 µM with UACC-62 melanoma; greater than 100 µM in the assay on A549 NSCLC. Besides, the TGI with OVCAR-5 ovarian and in the assay with IGROV1 ovarian was greater than 100 µM each time.

For the compound `COC(=O)CCC1=C(CC(=O)OC)C(C)(OC)N=C1NC(=O)OCc1ccccc1` (configuration not stated), the TGI in the assay with MDA-MB-231 breast, in the assay on HCC-2998 colon, in the assay on SK-MEL-2 melanoma, in the assay with SK-MEL-28 melanoma, with NCI/ADR-RES ovarian and in the assay on UACC-62 melanoma was greater than 100 µM in each case. Moreover, the TGI with A549 NSCLC, with DU-145 prostate, in the assay on OVCAR-5 ovarian and in the assay with IGROV1 ovarian was greater than 100 µM in each case.

Consider `COc1ccc(C(=O)O[C@H]2[C@@H]3C=CO[C@@H](OC4OC(CO)C(O)C(O)C4O)[C@@H]3[C@@]3(CO)O[C@@H]23)cc1O` (some centres not stated), for which the TGI with HCC-2998 colon, in the assay on HL-60(TB) leukemia, with SK-MEL-2 melanoma, in the assay with SK-MEL-28 melanoma, in the assay on UACC-62 melanoma and with A549 NSCLC was greater than 100 µM throughout. Moreover, the TGI with OVCAR-5 ovarian and in the assay on IGROV1 ovarian was greater than 100 µM in each case.

Consider `NC(=S)/N=C(/c1nc2ccc(Cl)cc2[nH]c1=O)C(O)c1ccccc1Cl` (configuration not stated), for which the TGI with HCC-2998 colon, with HL-60(TB) leukemia, with SK-MEL-2 melanoma, in the assay on SK-MEL-28 melanoma, in the assay with UACC-62 melanoma and in the assay with A549 NSCLC was greater than 100 µM in each case. Moreover, the TGI in the assay on OVCAR-5 ovarian and with IGROV1 ovarian was greater than 100 µM throughout.

With `Cc1c2c3ccccc3nc-2n(C)c2ccccc12`, the TGI was 11.4 µM in the assay on HCC-2998 colon; 12.5 µM with SK-MEL-28 melanoma; 6.78 µM in the assay with NCI/ADR-RES ovarian; 3.67 µM in the assay on UACC-62 melanoma; 9.19 µM with A549 NSCLC; 29.6 µM in the assay with DU-145 prostate. Also, the TGI was 8.27 µM with OVCAR-5 ovarian and 12.2 µM in the assay with IGROV1 ovarian.

As for `COc1cc(C(C)O)c(S(=O)(=O)CC(C)O)nn1` (configuration not stated), the TGI with HCC-2998 colon, in the assay on HL-60(TB) leukemia, in the assay with SK-MEL-28 melanoma, in the assay on NCI/ADR-RES ovarian, with UACC-62 melanoma and with A549 NSCLC was greater than 100 µM in each case. Also, the TGI with DU-145 prostate, in the assay on OVCAR-5 ovarian and with IGROV1 ovarian was greater than 100 µM each time.

Take `CN(C(=O)C12C3C4C5C3C1(C(=O)C13C6C7C8C6C1C8C73)C5C42)C(C)(C)C` (configuration not stated): the TGI in the assay on HCC-2998 colon was greater than 50 µM; with HL-60(TB) leukemia, greater than 26.9 µM; in the assay on SK-MEL-2 melanoma it was greater than 50 µM; in the assay on SK-MEL-28 melanoma, greater than 50 µM; in the assay with UACC-62 melanoma it was greater than 50 µM; in the assay with A549 NSCLC, greater than 50 µM. For the same compound, the TGI in the assay on OVCAR-5 ovarian and with IGROV1 ovarian was greater than 50 µM in each case.

Take `COc1ccc(N=NC(C(=O)c2ccccc2)C(=O)c2ccccc2)cc1`: the TGI in the assay on HCC-2998 colon was 91.1 µM; in the assay with HL-60(TB) leukemia it was 32.7 µM; in the assay with SK-MEL-2 melanoma, 61.2 µM; in the assay on SK-MEL-28 melanoma it was greater than 100 µM; in the assay on UACC-62 melanoma, 56.1 µM; with A549 NSCLC it was 75 µM. For the same compound, the TGI with OVCAR-5 ovarian is 87.1 µM; in the assay with IGROV1 ovarian, greater than 100 µM.

`COC(=O)/C=C(C)/C=C/C1OC(C)OCC1O` (configuration not stated): the TGI in the assay with HCC-2998 colon, in the assay with HL-60(TB) leukemia, in the assay with UACC-62 melanoma, in the assay on A549 NSCLC, with OVCAR-5 ovarian and with IGROV1 ovarian was greater than 100 µM each time.

Take `CCN1CCC(O)(c2ccc(Oc3ccc(F)cc3)cc2)C(C(=O)c2ccc(Oc3ccc(F)cc3)cc2)C1` (configuration not stated): the TGI with MDA-MB-231 breast was 26.6 µM; in the assay on HCC-2998 colon it was 23.6 µM; with SK-MEL-2 melanoma, 31.6 µM; with SK-MEL-28 melanoma, 30.5 µM; in the assay on NCI/ADR-RES ovarian it was 30.1 µM; in the assay with UACC-62 melanoma, 28 µM. The TGI with A549 NSCLC turned out to be 29.5 µM; with DU-145 prostate, 24.7 µM; in the assay with OVCAR-5 ovarian, 28.5 µM; in the assay with IGROV1 ovarian it was 24.1 µM.

`Cc1c2ccncc2cc2c1[nH]c1ccccc12`: the TGI is 15.7 µM in the assay on HCC-2998 colon; 6.36 µM in the assay with HL-60(TB) leukemia; 23.2 µM in the assay on SK-MEL-2 melanoma; 5.91 µM in the assay on SK-MEL-28 melanoma; greater than 56.4 µM in the assay on NCI/ADR-RES ovarian; 20.7 µM in the assay on UACC-62 melanoma. Further, the values for the TGI in the assay on A549 NSCLC, with OVCAR-5 ovarian and in the assay with IGROV1 ovarian were 15.1 µM, 13.6 µM and 65.2 µM, respectively.
